Molecules are shown by their SMILES. Read-outs that look alike come from different tables or passages of the source.

The source of these data is US20110262355A1, “COMPOSITIONS COMPRISING ENZYME-CLEAVABLE OPIOID PRODRUGS AND INHIBITORS THEREOF” (priority 2010, published 2011).

For data set [1] the following is noted: male, Sprague Dawley, rat, in vivo.
The nature of data set [2]: In vitro stability of Compound KC-2 to household chemicals and enzyme preparations. It counts as physicochemical. Conditions: vodka, baking soda, WINDEX, vinegar (RT or 80° C.), GNC Super Digestive, tenderizer, subtilisn (RT); 1 or 24 hr.
Another data set deals with T1, trypsin (Bos taurus, UniProt P00760).
T1 sequence (P00760 24-246): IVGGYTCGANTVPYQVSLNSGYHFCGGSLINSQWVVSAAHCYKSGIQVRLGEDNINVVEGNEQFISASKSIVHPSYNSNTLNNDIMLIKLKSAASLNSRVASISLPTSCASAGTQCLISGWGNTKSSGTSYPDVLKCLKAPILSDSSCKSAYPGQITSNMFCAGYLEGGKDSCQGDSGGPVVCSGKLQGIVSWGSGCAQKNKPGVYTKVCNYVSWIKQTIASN
The data set can be described thus: In vitro trypsin-mediated release of oxycodone from Compound KC-2, without or with Compound 109. On the set-up: purchased Sigma-Aldrich T8003; host or cells: bovine pancreas. It counts as biochemical, bovine. Conditions: bovine, trypsin from bovine pancreas, read-out: Pro-drug trypsin half-life, h Average ± sd (converted). An excerpt: (§1) The square symbols indicate the disappearance of Compound KC-2, and the triangle symbols depict the appearance of oxycodone, over time under the conditions described in this Example.

Data set [3] has as its target T2, trypsin from bovine pancreas (Bos taurus, UniProt P00760).
T2 sequence (P00760 24-246): T1 sequence (P00760 24-246)
The data set is described as above. In kind it is biochemical. On the set-up: purchased Sigma-Aldrich T8003; host or cells: bovine pancreas. The following applies: 0.761 mM KC-2; 0.0228 mg/mL trypsin; 37° C.; no trypsin inhibitor.
Text: as §1

The nature of data set [4]: Pharmacokinetics of oxycodone prodrug Compound KC-2 or oxycodone following PO administration to rats. It counts as in vivo. The following applies: rat, KC-2 20 mg/kg vs oxycodone 10 mg/kg.
Data set [5] concerns the target T3, human μ-opioid receptor (Homo sapiens, UniProt P35372). Description: In vitro human μ-opioid receptor binding assay.
Data set [6] has as its target T3, human μ-opioid receptor. Description: cell-based. On the set-up: expressed in transfected cells; host or cells: CHO. The following applies: agonist response, cAMP (HTRF); recombinant CHO cells; 37° C., 10 min; three separate experiments. Here is the method: This Example measures the ability of certain compounds of the present disclosure to effect an agonist response when exposed to recombinant human μ-opioid receptor expressed in CHO cells.
A. and Uhl, G. R. (1994). […] The control reaction included 1 μM DAMGO. The reaction mixtures were incubated at 37° C. for 10 min, and the reaction product was cyclic AMP (cAMP). The samples were submitted to homogeneous time resolved fluorescence (HTRF®). EC50 values (concentration producing a half-maximal specific response) were determined by non-linear regression fit using the Hillplot software.

T3 sequence (P35372 whole entry): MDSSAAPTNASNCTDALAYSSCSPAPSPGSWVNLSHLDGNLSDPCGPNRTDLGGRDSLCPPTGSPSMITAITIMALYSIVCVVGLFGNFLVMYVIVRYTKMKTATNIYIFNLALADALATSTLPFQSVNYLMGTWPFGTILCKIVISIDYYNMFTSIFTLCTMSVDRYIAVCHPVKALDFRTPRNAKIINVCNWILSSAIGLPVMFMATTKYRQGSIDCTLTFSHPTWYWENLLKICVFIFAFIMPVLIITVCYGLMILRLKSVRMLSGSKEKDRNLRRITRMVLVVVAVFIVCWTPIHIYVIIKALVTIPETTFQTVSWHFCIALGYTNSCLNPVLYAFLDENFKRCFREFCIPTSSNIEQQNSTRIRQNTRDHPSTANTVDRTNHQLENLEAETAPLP

By half-life is commonly meant how long it takes for the measured level to halve. One may read the IC50 as the midpoint of a concentration-inhibition curve. A higher IC50 goes with lower potency. Usually EC50 stands for the concentration at which the effect is half-maximal. `COc1ccc2c3c1O[C@H]1C(OC(=O)N(C)CCNC(=O)[C@H](CCCNC(=N)N)NC(C)=O)=CC[C@@]4(O)[C@@H](C2)N(C)CC[C@]314` [Compound KC-2, Oxycodone 6-(N-methyl-N-(2-N′-acetylarginylamino))ethylcarbamate]: in data set [1], the “Compound conc. in CSF” value amounted to 61.9 ng/mL, the “Compound conc. in Plasma” value is 27,200 ng/mL and the Plasma/CSF partitioning coefficient stood at 439. The conversion to oxycodone result in data set [2] is “less than 10%”. Besides, the half-life at 0.761 mM on trypsin (pH 8, with Compound 109 (trypsin inhibitor) 2 µM ([…])) is 116 ± 118 h. The half-life at 0.761 mM at trypsin (pH 8, 0.761 mM KC-2, 0.0228 mg/mL trypsin, 37° C., no trypsin inhibitor) was 5.64 ± 0.26 h. Moreover, in data set [3], the “Rate of oxycodone formation, umols/h/umol trypsin Average ± sd” value turned out to be 37.4 ± 0.9 umols/h/umol trypsin. Moreover, the “oxycodone plasma concentrations compared to administration of oxycodone” value in data set [4] is “suppressed Cmax and delayed Tmax compared to administration of oxycodone”. Also, the IC50 on human μ-opioid receptor [5] came out at 22 nM. Further, the EC50 on human μ-opioid receptor [6] was found to be 490 nM.
